In test [1] the target is T1, S1P1 (Homo sapiens, UniProt P21453). As to the kind of experiment: Receptor binding assay, [33P]sphingosine 1-phosphate competition, membranes of CHO cells expressing S1P1. Here is the method: (§1) Membranes were prepared from CHO cells expressing S1P1 or S1P3 for use in ligand binding studies. Cells were suspended in 50 mM TRIS, pH 7.4, 2 mM EDTA, 250 mM Sucrose (buffer A) and 1× Complete protease inhibitor cocktail (Roche), and disrupted at 4° C. by N2 decompression using a cell disruption bomb (Parr Instrument). Following centrifugation at 1000 RPM for 10 min at 4° C., the supernatant was diluted (2×) in buffer A and centrifuged again at 19000 RPM for 75 min at 4° C. The pellet was then suspended in 10 mM HEPES, pH 7.4, 1 mM EDTA, 250 mM Sucrose (Buffer B), and 1× Complete EDTA-free protease inhibitor cocktail and homogenized using a potter. Membranes were flash frozen in liquid N2 and stored at −80° C.
(§2) [33P]sphingosine 1-phosphate (3000 Ci/mmol; American Radiolabeled Chemicals, Inc.) was added to test compounds in 20% DMSO by competition. Membranes and WGA SPA beads (GE Healthcare) were added to give a final volume of 100 μl in 96-well plates or 50 μl in 384-well plates with assay concentrations of 30 pM or 15 pM [33P]sphingosine 1-phosphate (respectively for S1P1 or S1P3), 50 mM HEPES, pH 7.5, 5 mM MgCl2, 100 mM NaCl, 0.4% fatty acid-free BSA, 1-5 μg/well of proteins in 96-well plates vs 0.6-1 μg/well of proteins in 384-well plates and 100 μg/well of WGA SPA beads in 96-well plates vs 75 μg/well of WGA SPA beads in 384-well plates. Binding was performed for 60 min at RT on a shaker and bound radioactivity was measured on a PerkinElmer 1450 MicroBeta counter. Triplicate samples were averaged and normalized as percentage of inhibition relative to total binding (only DMSO in well) and non specific binding (1000-fold excess of unlabeled S1P). Binding data were analyzed using the GraphPad Prism program or Genedata software.
(§3) The “potency” or the “activity” of the compounds is determined by the Ki values as evaluated in one of the above described binding assay, 96 or 384 well plates.
Target sequence in this assay (P21453 whole entry, species assumed): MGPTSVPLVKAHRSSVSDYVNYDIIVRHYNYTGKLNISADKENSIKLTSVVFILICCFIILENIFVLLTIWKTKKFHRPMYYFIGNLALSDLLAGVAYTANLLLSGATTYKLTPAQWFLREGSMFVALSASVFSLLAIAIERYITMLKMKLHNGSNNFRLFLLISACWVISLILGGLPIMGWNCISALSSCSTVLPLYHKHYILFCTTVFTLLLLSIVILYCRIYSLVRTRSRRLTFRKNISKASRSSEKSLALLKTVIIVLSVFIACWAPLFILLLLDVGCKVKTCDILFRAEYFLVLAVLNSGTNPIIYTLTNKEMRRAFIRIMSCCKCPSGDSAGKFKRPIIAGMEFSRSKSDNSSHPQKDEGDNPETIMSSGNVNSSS

Test [2] deals with T1, S1P1. As to the kind of experiment: S1P1 internalization assay in S1P1-U2OS cells (cell imaging). It counts as cell-based. On the set-up: host or cells: U2OS (human bone osteosarcoma epithelial cells). To be noted: U2OS cells expressing S1P1-EGFP, 384-well format. How it is done: Cellular Functional Assays: Internalization of Sphinqosine-1-phosphate Receptor 1 (S1P1) in a Human Cell Line (U2OS) in a 384-Well Format Using a Cell Imaging Analysis.
The S1P1 internalization assay was performed in 384 well plates (Corning 384 black with clear bottom 3712) using S1P1-U2OS cells from BioImage (C039A), a human epithelial cell line (Human Bone Osteosarcoma Epithelial Cells). These cells expressed the human S1P1 Receptor fused to the green fluorescent protein (EGFP). A standard CMV promoter (cytomegalovirus promoter) controls the expression of S1P1-EGFP and continuous expression was maintained by addition of geneticin to the culture medium.
S1P1 Receptor desensitization induced the internalization of the membrane-localized S1P-EGFP fusion protein to endosomes, which can be monitored by cell imaging analysis.
The cells are plated in low serum medium (Dulbecco's Modified Eagle Medium (DMEM) with Glutamax-1 and high glucose, 1% Penicillin/Streptomycin, 1% Fetal Calf Serum (FCS), 0.5 mg/ml Geneticin) overnight.
The next day, S1P1-U2OS cells are incubated in 20 μl serum free medium (DMEM with Glutamax-1 and high glucose, 0.1% of fatty-acid free Bovin Serum Albumin (BSA), 10 mM, N′-2-Hydroxyethylpiperazine-N′-2 ethanesulphonic acid (HEPES) 1M) for 2 hours at 37° C./5% CO2. The cells are then treated with 4 μl compounds/agonists (6×/3% DMSO) for a total volume of 24 μl, and plates are incubated for 1 hour at 37° C./5% CO2.
S1P1-U2OS cells are fixed with 25 μl Paraformaldehyde 8% and stained with Hoechst 33345 dye (1:1000) for 20 minutes.
They were then washed 3 times with Phosphate Buffered Saline (PBS) and plates are sealed. The internalization of the receptor S1P1-EGFP is measured on Cellomics by calculating the “spot count per object” (“object” corresponds to nuclear and “spot” corresponds to S1P1-EGFP receptor). Internalization data were observed thanks to vHCS View and analyzed using Genedata® software.
Target sequence in this assay (P21453 whole entry): as the sequence (P21453 whole entry, species assumed) above

The target in another test is S1P3 (Homo sapiens, UniProt Q99500). The experiment in a line: Receptor binding assay, [33P]sphingosine 1-phosphate competition, membranes of CHO cells expressing S1P3. To be noted: 96 well plate; read-out: S1P3 Binding Ki [M] (96 well plate). How it is done:
as §1, §2, §3

Where [3] appears, read: 384 well plate, read-out: S1P1 Binding Ki [M] (384 well plate).
Setting [4] is: 96 well plate, read-out: S1P1 Binding Ki [M] (96 well plate).

We go through 20 molecules from patent publication US9029405B2, “5-(biphenyl-4-yl)-3-phenyl-1,2,4-oxadiazolyl derivatives as ligands on the sphingosine 1-phosphate(SIP)receptors” (Merck Serono S.A., priority 2010, dated 2015).

Where a name gives a salt, the structure may show the parent alone. Read-outs that look alike come from different tables or passages of the source. Some results are limits rather than exact numbers.

Chain of S1P3 (Q99500 whole entry, species assumed): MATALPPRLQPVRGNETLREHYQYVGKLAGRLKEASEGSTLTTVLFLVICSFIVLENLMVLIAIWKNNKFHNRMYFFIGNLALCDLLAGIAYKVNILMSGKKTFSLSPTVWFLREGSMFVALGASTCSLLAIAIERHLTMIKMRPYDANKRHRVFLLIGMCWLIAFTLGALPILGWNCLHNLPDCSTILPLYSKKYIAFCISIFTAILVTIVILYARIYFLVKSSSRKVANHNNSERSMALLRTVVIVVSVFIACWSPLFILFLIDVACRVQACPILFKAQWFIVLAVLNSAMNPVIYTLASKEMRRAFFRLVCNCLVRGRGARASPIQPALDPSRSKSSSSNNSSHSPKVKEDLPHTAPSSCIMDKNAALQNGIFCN

On to `Cc1cc(-c2nc(-c3ccc([C@H](C)N[C@@H](C)C(=O)O)cc3)no2)ccc1-c1ccccc1C(F)(F)F` (racemic) [Example 24, N-[(1S)-1-(4-{5-[2-methyl-2′-(trifluoromethyl)biphenyl-4-yl]-1,2,4-oxadiazol-3-yl}phenyl)ethyl]-L-alanine, hydrochloride salt and N-[(1R)-1-(4-{5-[2-methyl-2′-(trifluoromethyl)biphenyl-4-yl]-1,2,4-oxadiazol-3-yl}phenyl)ethyl]-D-alanine, hydrochloride salt], for which, on S1P1 [1] (setting [3]), the Ki (as a rule, the dissociation constant of the complex between target and ligand, obtained from inhibition or displacement) worked out at 4.29e-09 M. For the same molecule, the EC50 (commonly the midpoint of the concentration-response curve) at S1P1 [2] turned out to be 89.4 nM.
`Cc1ccccc1-c1ccc(-c2nc(-c3ccc([C@@H](CO)N[C@H](C)C(=O)O)cc3)no2)cc1C(F)(F)F` (single isomer, unassigned) [Example 99, hydrochloride salt]: the Ki on S1P1 [1] (setting [4]) was found to be 8.85e-10 M; on S1P3 it was 2.3e-06 M.
With `Cc1ccccc1-c1ccc(-c2nc(-c3ccc([C@H](CO)N[C@H](C)C(=O)O)cc3)no2)cc1C(F)(F)F` (single isomer, unassigned) [Example 100, hydrochloride salt], the results for the Ki at S1P1 [1] (setting [4]) and at S1P3 were 1.09e-09 M and 2.45e-06 M, respectively.
On to `CC[C@H](N[C@H](C)c1ccc(-c2noc(-c3ccc(-c4ccccc4C)c(C(F)(F)F)c3)n2)cc1)C(=O)O` [Example 10, (2S)-2-{[(1R)-1-(4-{5-[2′-methyl-2-(trifluoromethyl)biphenyl-4-yl]-1,2,4-oxadiazol-3-yl}phenyl)ethyl]amino}butanoic acid, hydrochloride salt], for which the Ki at S1P1 [1] (setting [3]) came to 1.94e-08 M. At S1P1 [2], this molecule returned an EC50 of 187 nM.
Regarding `Cc1cc(-c2nc(-c3cccc(C(C)N(C)[C@@H](C)C(=O)O)c3)no2)ccc1-c1ccccc1C(F)(F)F` (stereo partly shown) [Example 28, N-methyl-N-[1-(3-{5-[2-methyl-2′-(trifluoromethyl)biphenyl-4-yl]-1,2,4-oxadiazol-3-yl}phenyl)ethyl]alanine, hydrochloride salt], the Ki at S1P1 [1] (setting [3]) worked out at 1.38e-08 M. For the same molecule, a half-maximal response on S1P1 [2] (EC50) required 5170 nM.
In the same order, the values of `Cc1cc(-c2nc(-c3cccc(C(C)N(C)CC(=O)O)c3)no2)ccc1-c1ccccc1C(F)(F)F` (stereo not shown) [Example 30, N-methyl-N-[1-(3-{5-[2-methyl-2′-(trifluoromethyl)biphenyl-4-yl]-1,2,4-oxadiazol-3-yl}phenyl)ethyl]glycine, hydrochloride salt] are 1.43e-08 M and 410 nM.
For `Cc1cc(-c2nc(-c3ccc([C@H](C)N(C)CC(=O)O)cc3)no2)ccc1-c1ccccc1C(F)(F)F` [Example 33, N-methyl-N-[(1S)-1-(4-{5-[2-methyl-2′-(trifluoromethyl)biphenyl-4-yl]-1,2,4-oxadiazol-3-yl}phenyl)ethyl]glycine, hydrochloride salt], at S1P1 [1] (setting [3]), the Ki came out at 5.77e-09 M. At S1P1 [2], the midpoint of the response, the EC50, lay at 91 nM.
The matching figures for `Cc1cc(-c2nc(-c3ccc([C@@H](C)N(C)CC(=O)O)cc3)no2)ccc1-c1ccccc1C(F)(F)F` [Example 35, N-methyl-N-[(1R)-1-(4-{5-[2-methyl-2′-(trifluoromethyl)biphenyl-4-yl]-1,2,4-oxadiazol-3-yl}phenyl)ethyl]glycine, hydrochloride salt]: 6.14e-09 M and 211 nM.
In the same order, the values of `COCC(c1ccc(-c2noc(-c3ccc(-c4ccccc4C)c(C(F)(F)F)c3)n2)cc1)N(C)CC(=O)O` (stereo not shown) [Example 51, 2-((2-methoxy-1-(4-(5-(2′-methyl-2-(trifluoromethyl)biphenyl-4-yl)-1,2,4-oxadiazol-3-yl)phenyl)ethyl)(methyl)amino)acetic acid] are 7.52e-09 M and 29.8 nM.
The matching figures for `CCCC(NCc1ccc(-c2noc(-c3ccc(-c4ccccc4C)c(C(F)(F)F)c3)n2)cc1)C(=O)O` (stereo not shown) [Example 62]: 3.81e-09 M and 73.3 nM.
Take `Cc1ccccc1-c1ccc(-c2nc(-c3ccc(CN(C)C(C(=O)O)C(C)O)cc3)no2)cc1C(F)(F)F` (stereo not shown) [Example 74]: on S1P1 [1] (setting [3]), the Ki came out at 8.53e-09 M. The EC50 on S1P1 [2] came out at 106 nM.
In the same order, the values of `COCC(NCc1cccc(-c2noc(-c3ccc(-c4ccccc4C)c(C(F)(F)F)c3)n2)c1)C(=O)O` (stereo not shown) [Example 76, 3-Methoxy-2-{3-[5-(2′-methyl-2-trifluoromethyl-biphenyl-4-yl)-[1,2,4]oxadiazol-3-yl]-benzylamino}-propionic acid] are 1.5e-08 M and 133 nM.
With `Cc1ccccc1-c1ccc(-c2nc(-c3cccc(CNC(C(=O)O)C(C)O)c3)no2)cc1C(F)(F)F` (stereo not shown) [Example 77], the Ki on S1P1 [1] (setting [3]) is 5.47e-09 M. The molecule also gave an EC50 at S1P1 [2] of 39.9 nM.
As for `Cc1ccccc1-c1ccc(-c2nc(-c3cccc(CN(C)C(C)(C)C(=O)O)c3)no2)cc1C(F)(F)F` [Example 83, 2-Methyl-2-(methyl-{3-[5-(2′-methyl-2-trifluoromethyl-biphenyl-4-yl)-[1,2,4]oxadiazol-3-yl]-benzyl}-amino)-propionic acid], the Ki on S1P1 [1] (setting [3]) is 3.56e-09 M. The EC50 on S1P1 [2] was determined as 75.5 nM.
In the same order, the values of `Cc1ccccc1-c1ccc(-c2nc(-c3cccc(CN(C)C(C)(CO)C(=O)O)c3)no2)cc1C(F)(F)F` (stereo not shown) [Example 84] are 4.25e-09 M and 84.6 nM.
The matching figures for `CCN(Cc1cccc(-c2noc(-c3ccc(-c4ccccc4C)c(C(F)(F)F)c3)n2)c1)C(C)(C)C(=O)O` [Example 88, 2-(Ethyl-{3-[5-(2′-methyl-2-trifluoromethyl-biphenyl-4-yl)-[1,2,4]oxadiazol-3-yl]-benzyl}-amino)-2-methyl-propionic acid]: 2.85e-09 M and 69.7 nM.
Take `COCc1cc(-c2nc(-c3ccc([C@@H](C)N(C)CC(=O)O)cc3)no2)ccc1-c1ccccc1C` [Example 97, N-[(1R)-1-(4-{5-[2-(methoxymethyl)-2′-methylbiphenyl-4-yl]-1,2,4-oxadiazol-3-yl}phenyl)ethyl]-N-methylglycine, hydrochloride salt]: the inhibition constant Ki on S1P1 [1] (setting [4]) stood at 7.8e-10 M; on S1P3, 4.8e-07 M.
Regarding `COCc1cc(-c2nc(-c3ccc([C@H](C)N(C)CC(=O)O)cc3)no2)ccc1-c1ccccc1C` [Example 98, N-[(1S)-1-(4-{5-[2-(methoxymethyl)-2′-methylbiphenyl-4-yl]-1,2,4-oxadiazol-3-yl}phenyl)ethyl]-N-methylglycine, hydrochloride salt], the Ki is 6.2e-10 M on S1P1 [1] (setting [4]) and not below 2e-05 M at S1P3.
The matching figures for `Cc1ccccc1-c1ccc(-c2nc(-c3ccc([C@@H](C)N)cc3)no2)cc1C(F)(F)F` [Example M1]: 4.05e-10 M and 1.45e-06 M.
In the same order, the values of `CNCc1cccc(-c2noc(-c3ccc(-c4ccccc4C)c(C(F)(F)F)c3)n2)c1` [Example M2] are 5.6e-10 M and 2.4e-08 M.
